Laboratory results as given in patent publication US7923204B2, “Forward mutation assay based on 5-fluorouracil resistance” (priority 2003, dated 2011).
Where two headings read alike, the source gives them in different places. Marks after values point to notes of the source that are not given here.

Columns and labels:
[1] = test system: TA100, TA1535
From the text: As stated above, the Ames Salmonella his+ plate incorporation assay evaluates genotoxic activity (mutagenicity) of chemical compounds on a set of genetically modified bacterial tester strains that are auxotrophic for the amino acid histidine. In practice, the Ames Assay simultaneously evaluates the genotoxic activity of a potential mutagen on several different target genes. The standard Ames Assay utilizes several different tester strains, each with a distinct mutation (e.g., transition, frameshift etc.) in one of the genes comprising the histidine (his) biosynthetic operon. The his operon encodes enzymes required for the biosynthesis of the amino acid histidine. For example, strain TA98 contains the hisD3052 allele which is reverted by a frameshift mutation, while strain TA1535 contains the hisG46 allele which is reverted by transition and transversion mutations. More specifically, the Ames Assay evaluates the ability of a chemical agent to increase the rate of reversion of auxotrophic strains of Salmonella to prototrophy.

[2] = test system: Salmonella; conditions: cited from earlier work
[3] = test system: FU100
Protocol: Briefly, in order to practice the disclosed mutation assay one-ml aliquots of exponentially growing bacteria are exposed to the test agent for two hours in the presence and absence of a metabolic activation system, such as a mammalian (i.e., rat, hamster or human) liver homogenate (S9-fraction or liver microsomal enzymes). The aliquots are then diluted, allowed to grow for 3 hours, and assessed for treatment-related toxicity/inhibition by optical density. The cultures are subsequently diluted a second time and grown overnight to permit full recovery from toxicity and to allow expression of the FU^R phenotype. Samples of the cultures are then plated in 384-well microtiter dishes in the presence of 2 μg/ml 5-FU and the pH-sensitive indicator bromcresol purple. Three days later positive wells containing FU^R colonies are detected by their yellow color and enumerated. Treated cultures are then compared to control plates to determine genotoxic activity.
For each mutation experiment, two frozen 1-ml aliquots of FU100 were quickly thawed in a 37° C. water bath, pelleted by centrifugation, washed to remove the DMSO, and suspended in 35 mL of MinE medium. The culture was shaken for approximately 1 hour at 37° C. until the optical density at 600 nm (OD600) reached the target density of 0.3. A 16-ml aliquot of culture was added to each of two 50-ml tubes containing 3.6 ml of a NADPH-generating system (5.6 mM glucose-6-phosphate, 4.5 mM NADP+, 5 mM sucrose, 110 mM Na2HPO4, 37 mM KCl, and 9 mM MgCl2) and either 0.4 ml rat liver S-9 or an equal volume of sodium phosphate buffer. Aliquots of these mixtures were distributed into three 12-well cluster dishes (one for exposure with S-9, one for exposure without S-9, one for controls with and without S-9), and exposed to test compounds as 1-ml aliquots for 2 hour as outlined in FIG. 1.
Following treatment, the 1-ml aliquots were transferred into 9 ml of warm MinE medium in a 50 ml tube and incubated at 37° C. on a rotary wheel for 3 hours. Next, 20 ml of medium was added to each culture tube and 0.25 ml aliquots were transferred to a 96-well plate for OD600 measurements to assess toxicity (OD Day 1). […] Bulk cultures were then incubated overnight in the dark at 30° C. to permit recovery from toxicity and to allow time for the test cells to express the FU^R phenotype.
The next day, OD600 was again assessed to adjust cell number plated on 5-FU plates (OD Day 2; 100 μl of the culture diluted with 150 μl MinE medium for OD600 measurements). For plating, a 35 μl aliquot of each culture was added to 31.4 mL of MinE medium with 2 μg/ml of 5-FU and 10 μg/ml of bromcresol purple. The mixture was then dispersed into a 384-well plate (75 μl/well) and placed at 37° C. for 3 days in a humidified incubator.
The data obtained for both survival (OD day 1), relative number of cells plated (OD day 2), and number of positive wells were imported into an Excel template.
Table 8 summarizes the criteria for positive result in 5-FU assay using the FU100 tester strain described and claimed herein. […] A positive compound was defined when two or more doses met the aforementioned criteria.

[4] = test system: sister chromatid exchange; conditions: cited from earlier work
[5] = test system: micronucleus; conditions: cited from earlier work
[6] = test system: chromosome aberrations; conditions: cited from earlier work
[7] = test system: mouse lymphoma; conditions: cited from earlier work
[8] = test system: FU100; remark: listed apart in the source
[9] = NTP Results Report 12 Aug. 2002
[10] = NTP Results Report 12 Aug. 2002 or cited reference (footnotes f, g, i, j)
[11] = in the presence of S9 activation (+), approximate, first dose with greater than 50% survival by optical density on Day 1
[12] = without S9 activation (−), approximate, first dose with greater than 50% survival by optical density on Day 1
[13] = in the presence of S9 activation (+), FU100, 2 h exposure
[14] = without S9 activation (−), FU100, 2 h exposure

SMILES	NTP Results: SA = Salmonella [2]	Results (5-FU assay) [3]	response in the 5-FU Assay (in words) [3]	NTP Results: SC = sister chromatid exchange [4, 9]	NTP Results: MN = micronucleus [5, 9]	NTP Results: CA = chromosome aberrations [6, 9]	NTP Results: SA = Salmonella [2, 10]	LD50 [8, 11] [µg/mL]	LD50 [8, 12] [µg/mL]	Results (5-FU assay) [3, 13]	Results (5-FU assay) [3, 14]	NTP Results: SC = sister chromatid exchange [4]	NTP Results: ML = mouse lymphoma [7]	NTP Results: CA = chromosome aberrations [6]	other results
OO [Hydrogen Peroxide]	(SA+^w)	Pos	positive compounds in toxic concentrations												response in the standard Ames assay (in words) [1]: weak or equivocal response; Lowest Positive Dose ([3]; Salmonella typhimurium): 3 µg/mL; Results (5-FU assay) ([3]; s9): Neg; response in the 5-FU Assay (in words) ([3]; text and figure legend (FIG. 6), with or without S9): easy to detect
CC(C)CON=O [Isobutyl Nitrite]		Pos	positive compounds in toxic concentrations	(SA+, CA+, SC+, MN+)	(SA+, CA+, SC+, MN+)	(SA+, CA+, SC+, MN+)	(SA+, CA+, SC+, MN+)								
CC1CCC(C(C)C)C(O)C1 (centres unmarked) [Menthol]				(SA−, CA−, SC−, ML−, MN−)	(SA−, CA−, SC−, ML−, MN−)	(SA−, CA−, SC−, ML−, MN−)	(SA−, CA−, SC−, ML−, MN−)	>9	>16	Neg	Neg				NTP Results: ML = mouse lymphoma [7, 9]: (SA−, CA−, SC−, ML−, MN−)
O=C1CN(/N=C/c2ccc([N+](=O)[O-])o2)C(=O)N1 [Nitrofurantoin]	(SA+, CA+, SC+, ML+, MN−)	Pos										(SA+, CA+, SC+, ML+, MN−)	(SA+, CA+, SC+, ML+, MN−)	(SA+, CA+, SC+, ML+, MN−)	LD50 ([8]; Salmonella typhimurium): >1 µg/mL; NTP Results: MN = micronucleus [5]: (SA+, CA+, SC+, ML+, MN−); Lowest Positive Dose ([3]; Salmonella typhimurium): 0.1 µg/mL
Oc1ccccc1 [Phenol]	(SA−, CA+, SC+, ML+)	Neg	negative/toxic									(SA−, CA+, SC+, ML+)	(SA−, CA+, SC+, ML+)	(SA−, CA+, SC+, ML+)	
COC(=O)[C@H]1[C@H]2C[C@@H]3c4[nH]c5cc(OC)ccc5c4CCN3C[C@H]2C[C@@H](OC(=O)c2cc(OC)c(OC)c(OC)c2)[C@@H]1OC [Reserpine]				−	−		−	>1500	>1500	Neg	Neg				NTP Results: ML = mouse lymphoma [7, 9]: −
C=CCc1ccc2c(c1)OCO2 [Safrole]	(SA−, CA−, SC+ ML+)	Neg						>50	>60			(SA−, CA−, SC+ ML+)	(SA−, CA−, SC+ ML+)	(SA−, CA−, SC+ ML+)	
[N-]=[N+]=[N-] [Sodium Azide]				+		−	+	>30	>50	Pos^w	Pos^w				response in the standard Ames assay (in words) ([1]; TA100 or TA1535, plate incorporation or liquid suspension): extremely sensitive; concentration producing a positive response in the 5-FU Assay ([3]; S9 condition not stated): greater than 90 μg/ml; Lowest Positive Dose ([3]; in the presence of S9 activation (+), lowest dose tested giving a positive response): 90 µg/mL; Lowest Positive Dose ([3]; without S9 activation (−), lowest dose tested giving a positive response): 160 µg/mL
